According to PMC9656319, “Pharmacokinetics and Tissue Distribution of Coumarins from Tagetes lucida in an LPS-Induced Neuroinflammation Model” (Plants, 2022):
Each block holds one compound with its values, some of them ahead of it.

Assays:
[1] = Tissue distribution in the brain after oral hexanic extract of Tagetes lucida, healthy and LPS-administrated mice; format: in vivo, ICR mice; details: after the initial absorption process
Procedure: After blood sampling, the mice were sacrificed in a chamber with chloroform by an overdose of anesthesia. The brain, kidney, and spleen were quickly removed and rinsed with saline solution, fresh weight was recorded, and immediately placed on ice. Subsequently, the organs were freeze-dried, grounded, and weighted. The lyophilized organs were individually suspended in methanol in a 1:1 volume: dry weight ratio for 24 h, then sonicated for 5 min and centrifuged at 14,000 rpm for 7 min. The supernatants were recovered in clean tubes and stored at −70 °C until their use.
(§1) One hundred microliters of plasma and organs samples, spiked with calibration and QC concentration or samples from the pharmacokinetic study, were mixed with 300 µL of acetonitrile containing the IS at 10 µg/mL for protein precipitation, and vortexed for 3 min. Then, 200 µL of dichloromethane were added, for liquid–liquid extraction of the bioactive compounds, and vortexed for 5 min. The mixture was centrifuged at 14,000 rpm for 10 min, and the extracted organic layers were placed in new tubes, until completely dry at room temperature. For quantitative analysis, samples were resuspended in 100 µL of methanol, transferred to sampling vials, and injected into the chromatographic system, described below.
A pharmacokinetic study was carried out in sixty mice, divided in six subgroups, according to sample collection times. An acute inflammation process by the intraperitoneal (i.p.) administration of LPS at 2 mg/kg was induced in half of the mice per group, while the other half received an i.p. injection of saline solution. Ten min after the damage was induced, the mice were administered with an oral dose of 10 mg/kg of the bioactive fraction dissolved in a 1% Tween-20 aqueous solution. […]
To evaluate the distribution in the tissues, bioactive coumarins were quantified in the lyophilized organs, and concentrations were adjusted to the volumes of liquid obtained by the difference between the dry and fresh weights of each tissue to simulate a distribution approximation of the compounds by tissue system.

[2] = Pharmacokinetic study in plasma after oral hexanic extract of Tagetes lucida, healthy and LPS-damaged mice; format: in vivo, ICR mice; details: for Cmax / AUC(0-inf) / MRT / Tmax / half-life / AUC(0-t): ICR, mouse, po, 10 mg/kg; for Cmax / AUC(0-inf) / MRT / Tmax / half-life / AUC(0-t) / Cl/F: plasma, 10 mg/kg oral hexanic extract, mean ± SEM (n = 5); for Cmax: non-compartmental; for AUC(0-t): to 6 h
Procedure: The optimized HPLC-validated method for the quantification of coumarins present in the hexane extract of T. lucida was used to evaluate the concentration profiles over time in the plasma, brain, kidney, and spleen biological matrices after an oral administration of 10 mg/kg of the extract.
Blood samples were obtained from the retro-orbital sinus of mice and collected in heparinized tubes. Plasma was separated by centrifugation at 3500 rpm for 5 min and stored in new Eppendorf tubes at −70 °C, until further processing.
as §1
A pharmacokinetic study was carried out in sixty mice, divided in six subgroups, according to sample collection times. An acute inflammation process by the intraperitoneal (i.p.) administration of LPS at 2 mg/kg was induced in half of the mice per group, while the other half received an i.p. injection of saline solution. Ten min after the damage was induced, the mice were administered with an oral dose of 10 mg/kg of the bioactive fraction dissolved in a 1% Tween-20 aqueous solution. Blood and tissue samples were obtained and processed at 0, 0.25, 0.75, 1.5, 2, 4, and 6 h post-dosing, as indicated in the “Samples collection” and “Plasma and tissue samples processing” sections.
Pharmacokinetic parameters of PE, SC, DF, HR, and PU in plasma were calculated by PKSolver software.

[3] = Stability of the analytes in spiked plasma, brain, kidney and spleen matrices (autosampler, long-term, freeze-thaw); format: physicochemical, mice; details: for Stability Autosampler RE (%): processed samples in autosampler vials 24 h room temperature; for Stability Freeze-Thaw RE (%): three cycles (−4 °C to 25 °C); for Stability Long-Term RE (%): −70 °C for 30 days
Procedure: The stability of the compounds obtained from each enriched matrices at the QC concentrations was evaluated under different conditions that covered the processing, handling, and storage phases that could be developed throughout the study.
Individual stock solutions of PE, SC, DF, HR, PU, and rutin (IS) were prepared separately in methanol (1 mg/mL) and stored at −4 °C until use. From the stocks, a working solution in methanol was prepared at a concentration of 200 µg/mL of each coumarin. Blank plasma or organs supernatant samples (80 µL) were spiked with 20 µL of serial dilutions of working solution to obtain calibration curves ranging between 0.156, 0.312, 0.625, 1.25, 2.5, 5, 10, 20, and 40 µg/mL of each coumarin. Quality control (QC) samples were prepared at three levels of 0.3 (low), 3 (medium), and 30 (high) µg/mL for each coumarin.
The stability of the analytes in plasma, brain, kidneys, and spleen was evaluated by the analyzed concentrations of QC subjected to three different conditions. Short-term stability was determined by analysis of samples processed in the autosampler vials at 24 h at room temperature. Long-term stability was tested on samples stored at −70 °C for 30 days. Freeze-thaw stability was determined after three cycles (−4 °C to 25 °C) on three consecutive days.

[4] = LPS-damaged ICR mice (LPS 2 mg/kg i.p.)

time at which the highest concentration in the brain tissue is reached [1]: 15 min
Stability Autosampler RE (%) ([3]; brain, nominal 0.3 µg/mL): -2.37%
Stability Freeze-Thaw RE (%) ([3]; brain, nominal 0.3 µg/mL): -1.15%
Stability Long-Term RE (%) ([3]; brain, nominal 0.3 µg/mL): -0.63%
Stability Autosampler RE (%) ([3]; brain, nominal 3.0 µg/mL): -0.34%
Stability Freeze-Thaw RE (%) ([3]; brain, nominal 3.0 µg/mL): -2.34%
Stability Long-Term RE (%) ([3]; brain, nominal 3.0 µg/mL): -3.44%
Stability Autosampler RE (%) ([3]; brain, nominal 30.0 µg/mL): 4.05%
Stability Freeze-Thaw RE (%) ([3]; brain, nominal 30.0 µg/mL): -1.25%
Stability Long-Term RE (%) ([3]; brain, nominal 30.0 µg/mL): -3.82%
Stability Autosampler RE (%) ([3]; kidney, nominal 0.3 µg/mL): 7.06%
Stability Freeze-Thaw RE (%) ([3]; kidney, nominal 0.3 µg/mL): 2.26%
Stability Long-Term RE (%) ([3]; kidney, nominal 0.3 µg/mL): 3.02%
Stability Autosampler RE (%) ([3]; kidney, nominal 3.0 µg/mL): 3.99%
Stability Freeze-Thaw RE (%) ([3]; kidney, nominal 3.0 µg/mL): 0.91%
Stability Long-Term RE (%) ([3]; kidney, nominal 3.0 µg/mL): 2.69%
Stability Autosampler RE (%) ([3]; kidney, nominal 30.0 µg/mL): 1.61%
Stability Freeze-Thaw RE (%) ([3]; kidney, nominal 30.0 µg/mL): 1.12%
Stability Long-Term RE (%) ([3]; kidney, nominal 30.0 µg/mL): 7.34%
Stability Autosampler RE (%) ([3]; plasma, nominal 0.3 µg/mL): -4.00%
Stability Freeze-Thaw RE (%) ([3]; plasma, nominal 0.3 µg/mL): 2.80%
Stability Long-Term RE (%) ([3]; plasma, nominal 0.3 µg/mL): -6.86%
Stability Autosampler RE (%) ([3]; plasma, nominal 3.0 µg/mL): 11.12%
Stability Freeze-Thaw RE (%) ([3]; plasma, nominal 3.0 µg/mL): -2.01%
Stability Long-Term RE (%) ([3]; plasma, nominal 3.0 µg/mL): -4.44%
Stability Autosampler RE (%) ([3]; plasma, nominal 30.0 µg/mL): 8.22%
Stability Freeze-Thaw RE (%) ([3]; plasma, nominal 30.0 µg/mL): -5.55%
Stability Long-Term RE (%) ([3]; plasma, nominal 30.0 µg/mL): -5.20%
Stability Autosampler RE (%) ([3]; spleen, nominal 0.3 µg/mL): -5.98%
Stability Freeze-Thaw RE (%) ([3]; spleen, nominal 0.3 µg/mL): 2.50%
Stability Long-Term RE (%) ([3]; spleen, nominal 0.3 µg/mL): 1.51%
Stability Autosampler RE (%) ([3]; spleen, nominal 3.0 µg/mL): -10.42%
Stability Freeze-Thaw RE (%) ([3]; spleen, nominal 3.0 µg/mL): 4.42%
Stability Long-Term RE (%) ([3]; spleen, nominal 3.0 µg/mL): 3.67%
Stability Autosampler RE (%) ([3]; spleen, nominal 30.0 µg/mL): -1.02%
Stability Freeze-Thaw RE (%) ([3]; spleen, nominal 30.0 µg/mL): 2.38%
Stability Long-Term RE (%) ([3]; spleen, nominal 30.0 µg/mL): 2.78%
SMILES: COc1cc2ccc(=O)oc2cc1OCC=C(C)C [PE, 7-O-prenylscopoletin]
Cmax [2, 4]: 1770 ± 310 ng/mL
AUC(0-inf) ([2]; LPS-damaged ICR mice): 6370 ± 1200 ng·h/mL
MRT ([2]; LPS-damaged ICR mice): 6.96 ± 1.92 h
Tmax ([2]; LPS-damaged ICR mice): 0.85 ± 0.28 h
half-life ([2]; LPS-damaged ICR mice): 4.48 ± 1.31 h
AUC(0-t) ([2]; LPS-damaged ICR mice): 3520 ± 100 ng·h/mL
AUC(0-inf) ([2]; healthy ICR mice): 1700 ± 310 ng·h/mL
MRT ([2]; healthy ICR mice): 3.04 ± 0.45 h
Tmax ([2]; healthy ICR mice): 1.55 ± 0.34 h
half-life ([2]; healthy ICR mice): 1.86 ± 0.55 h
Cmax ([2]; healthy ICR mice): 930 ± 290 ng/mL
AUC(0-t) ([2]; healthy ICR mice): 1560 ± 350 ng·h/mL
Cl/F ([2]; LPS-damaged ICR mice): 17.38 ± 2.25 (mg/kg)/(μg/mL)/h
Cl/F ([2]; healthy ICR mice): 65.83 ± 10.18 (mg/kg)/(μg/mL)/h

time at which the highest concentration in the brain tissue is reached [1]: 15 min
Stability Autosampler RE (%) ([3]; brain, nominal 0.3 µg/mL): 2.13%
Stability Freeze-Thaw RE (%) ([3]; brain, nominal 0.3 µg/mL): -6.54%
Stability Long-Term RE (%) ([3]; brain, nominal 0.3 µg/mL): 3.45%
Stability Autosampler RE (%) ([3]; brain, nominal 3.0 µg/mL): 1.80%
Stability Freeze-Thaw RE (%) ([3]; brain, nominal 3.0 µg/mL): -4.49%
Stability Long-Term RE (%) ([3]; brain, nominal 3.0 µg/mL): -5.42%
Stability Autosampler RE (%) ([3]; brain, nominal 30.0 µg/mL): 4.57%
Stability Freeze-Thaw RE (%) ([3]; brain, nominal 30.0 µg/mL): -1.74%
Stability Long-Term RE (%) ([3]; brain, nominal 30.0 µg/mL): -4.61%
Stability Autosampler RE (%) ([3]; kidney, nominal 0.3 µg/mL): 7.10%
Stability Freeze-Thaw RE (%) ([3]; kidney, nominal 0.3 µg/mL): 3.61%
Stability Long-Term RE (%) ([3]; kidney, nominal 0.3 µg/mL): 5.54%
Stability Autosampler RE (%) ([3]; kidney, nominal 3.0 µg/mL): 5.21%
Stability Freeze-Thaw RE (%) ([3]; kidney, nominal 3.0 µg/mL): 2.01%
Stability Long-Term RE (%) ([3]; kidney, nominal 3.0 µg/mL): 8.68%
Stability Autosampler RE (%) ([3]; kidney, nominal 30.0 µg/mL): 1.66%
Stability Freeze-Thaw RE (%) ([3]; kidney, nominal 30.0 µg/mL): -1.02%
Stability Long-Term RE (%) ([3]; kidney, nominal 30.0 µg/mL): 6.46%
Stability Autosampler RE (%) ([3]; plasma, nominal 0.3 µg/mL): -6.02%
Stability Freeze-Thaw RE (%) ([3]; plasma, nominal 0.3 µg/mL): -9.54%
Stability Long-Term RE (%) ([3]; plasma, nominal 0.3 µg/mL): -8.22%
Stability Autosampler RE (%) ([3]; plasma, nominal 3.0 µg/mL): -11.68%
Stability Freeze-Thaw RE (%) ([3]; plasma, nominal 3.0 µg/mL): -9.78%
Stability Long-Term RE (%) ([3]; plasma, nominal 3.0 µg/mL): -10.56%
Stability Autosampler RE (%) ([3]; plasma, nominal 30.0 µg/mL): -9.86%
Stability Freeze-Thaw RE (%) ([3]; plasma, nominal 30.0 µg/mL): -5.10%
Stability Long-Term RE (%) ([3]; plasma, nominal 30.0 µg/mL): -4.81%
Stability Autosampler RE (%) ([3]; spleen, nominal 0.3 µg/mL): -0.09%
Stability Freeze-Thaw RE (%) ([3]; spleen, nominal 0.3 µg/mL): -8.53%
Stability Long-Term RE (%) ([3]; spleen, nominal 0.3 µg/mL): -6.92%
Stability Autosampler RE (%) ([3]; spleen, nominal 3.0 µg/mL): -4.98%
Stability Freeze-Thaw RE (%) ([3]; spleen, nominal 3.0 µg/mL): 2.88%
Stability Long-Term RE (%) ([3]; spleen, nominal 3.0 µg/mL): 7.56%
Stability Autosampler RE (%) ([3]; spleen, nominal 30.0 µg/mL): -2.63%
Stability Freeze-Thaw RE (%) ([3]; spleen, nominal 30.0 µg/mL): 2.27%
Stability Long-Term RE (%) ([3]; spleen, nominal 30.0 µg/mL): 4.26%
SMILES: CC(C)=CCOc1ccc2ccc(=O)oc2c1 [PU, 7-O-prenylumbelliferone]
Cmax [2, 4]: 690 ± 70 ng/mL
AUC(0-inf) ([2]; LPS-damaged ICR mice): 2240 ± 260 ng·h/mL
MRT ([2]; LPS-damaged ICR mice): 2.68 ± 0.14 h
Tmax ([2]; LPS-damaged ICR mice): 1.05 ± 0.31 h
half-life ([2]; LPS-damaged ICR mice): 0.95 ± 0.1 h
AUC(0-t) ([2]; LPS-damaged ICR mice): 2220 ± 260 ng·h/mL
AUC(0-inf) ([2]; healthy ICR mice): 1520 ± 120 ng·h/mL
MRT ([2]; healthy ICR mice): 2.15 ± 0.11 h
Tmax ([2]; healthy ICR mice): 1.55 ± 0.23 h
half-life ([2]; healthy ICR mice): 0.92 ± 0.06 h
Cmax ([2]; healthy ICR mice): 560 ± 50 ng/mL
AUC(0-t) ([2]; healthy ICR mice): 1490 ± 110 ng·h/mL
time of concentration peak in plasma after administration of the extract ([2]; LPS-treated mice, Figure 3e): up to 4 h
Cl/F ([2]; LPS-damaged ICR mice): 46.95 ± 5.03 (mg/kg)/(μg/mL)/h
Cl/F ([2]; healthy ICR mice): 67.37 ± 5.33 (mg/kg)/(μg/mL)/h
